Assay results reported in ChEMBL document CHEMBL1201862, “PubChem BioAssay data set” (2004).
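Where inhibition never reached the appropriate level, the endpoint shown equals the highest concentration tested. Otherwise, values were interpolated linearly from a five-concentration, 48-hour dose response in 96-well plates. GI50: concentration for 50% inhibition of growth.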 Activity calls are given as the source filed them. No stated cut-off is given here; in the data, active = GI50 up to about 1.1 µM and inactive = higher.

Columns and labels:
Experiment in all cases: growth of human tumour cells (NCI), 48 h
[1] = tested on: DMS-273
[2] = tested on: KM-20L2
[3] = tested on: LXFL 529
[4] = tested on: M19-MEL
[5] = tested on: XF498
[6] = tested on: HOP-18
[7] = tested on: RXF 631
[8] = tested on: SNB-78

Measured: GI50

O=c1n(CC2CO2)c2ccccc2n1CC1CS1 (centres undefined)
inactive: [1] > 100 µM | [2] > 100 µM | [3] 88.9 µM | [4] > 100 µM | [5] > 100 µM

CC1(C)CCc2cc3c(-c4ccccc4)cc(=O)oc3cc2O1
inactive: [1] > 100 µM | [6] 47.8 µM | [2] > 100 µM | [3] > 100 µM | [4] > 100 µM | [7] > 100 µM | [8] 85.7 µM | [5] 41 µM

C=C(C)C1CC2=C(O1)C(=O)c1ccccc1C2=O (stereo not drawn) [DEHYDROISO-ALPHA-LAPACHONE]
inactive: [1] 17.4 µM | [3] 17.2 µM | [7] 20.3 µM | [8] 20.3 µM | [5] 17.9 µM

O=c1c2ccccc2[nH]c2cc(O)cc(O)c12
inactive: [1] 35.1 µM | [6] > 100 µM | [3] 39.3 µM | [4] 39.1 µM | [8] > 100 µM | [5] 27.9 µM

CCCCOC(=O)CN1C(=O)c2ccccc2C1=O
inactive: [1] > 100 µM | [2] > 100 µM | [4] > 100 µM | [8] > 100 µM | [5] > 100 µM
